For data set [1], the target named is T1, C-C chemokine receptor type 3 (Homo sapiens, UniProt P51677).
T1 sequence (P51677 whole entry): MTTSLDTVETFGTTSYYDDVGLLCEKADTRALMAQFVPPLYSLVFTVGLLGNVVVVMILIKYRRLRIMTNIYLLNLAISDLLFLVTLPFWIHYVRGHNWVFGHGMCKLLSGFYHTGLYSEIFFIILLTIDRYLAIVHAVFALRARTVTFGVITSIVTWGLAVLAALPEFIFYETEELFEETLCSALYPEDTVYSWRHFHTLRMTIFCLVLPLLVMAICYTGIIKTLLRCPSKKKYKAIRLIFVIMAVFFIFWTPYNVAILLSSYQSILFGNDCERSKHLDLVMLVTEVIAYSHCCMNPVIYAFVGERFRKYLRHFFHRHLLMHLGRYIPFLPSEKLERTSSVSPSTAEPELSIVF
As to the kind of experiment: Binding affinity to CCR3.

The target in data set [2] is Sodium-dependent noradrenaline transporter (Homo sapiens, UniProt P23975). Nature of the data set: Inhibition of NET.
Data set [3] deals with Sodium-dependent dopamine transporter (Homo sapiens, UniProt Q01959). As to the kind of experiment: Inhibition of DAT.
The target of data set [4] is Sodium-dependent serotonin transporter (Homo sapiens, UniProt P31645). As to the kind of experiment: Inhibition of 5HTT.
A short description of data set [5]: Volume of distribution in cynomolgus monkey at 2 mg/kg, iv. The format is ADME, organism-based, Macaca fascicularis. The arrangement: dose 2 mg/kg, route intravenous. Particulars: in vivo, read-out: Vdss.
Data set [6] is described as follows: Clearance in cynomolgus monkey at 2 mg/kg, iv. The data set is classed as ADME, organism-based, Macaca fascicularis. Also on record: dose 2 mg/kg, route intravenous. The note with it: in vivo.
Data set [7] in a line: Half life in cynomolgus monkey at 5 mg/kg, po. The note with it: in vivo. The data set is classed as ADME, organism-based, Macaca fascicularis. Also on record: dose 5 mg/kg, route oral.
Data set [8] is described as follows: Cmax in mice after 10 mg/kg oral dose. The data set is classed as ADME, organism-based. Also on record: dose 10 mg/kg, route oral. Particulars: mouse, in vivo.
A short description of data set [9]: Cmax in cynomolgus monkeys after 5 mg/kg oral dose. The data set is classed as ADME, organism-based, Macaca fascicularis. The arrangement: dose 5 mg/kg, route oral. Particulars: cynomolgus monkey, in vivo.
A short description of data set [10]: Volume of distribution in mouse ar 2 mg/kg, iv. The note with it: in vivo, read-out: Vdss. The format is ADME, organism-based. The arrangement: dose 2 mg/kg, route intravenous.
In data set [11] the test system is Eosinophil. Nature of the data set: Inhibition of eotaxin-induced human eosinophil chemotaxis. The format is functional, cell-based.
A short description of data set [12]: Half life in mouse at 10 mg/kg, po. The format is ADME, organism-based. Also on record: dose 10 mg/kg, route oral. The note with it: in vivo.
Data set [13] can be described thus: Oral bioavailability in cynomolgus monkey at 5 mg/kg, po. The data set is classed as ADME, organism-based, Macaca fascicularis. Particulars: in vivo.
Data set [14] in a line: Oral bioavailability in mouse at 10 mg/kg, po. The data set is classed as ADME, organism-based. Particulars: in vivo.
A short description of data set [15]: Clearance in mouse at 2 mg/kg, iv. The format is ADME, organism-based. Also on record: dose 2 mg/kg, route intravenous. The note with it: in vivo.
Data set [16] concerns Eosinophil. As to the kind of experiment: Inhibition of eotaxin-induced calcium mobilization in eosinophil. The format is functional, cell-based. The note with it: Homo sapiens.

The record followed here is ChEMBL document CHEMBL1139680, “2,4-Disubstituted piperidines as selective CC chemokine receptor 3 (CCR3) antagonists: synthesis and selectivity” (Bioorg Med Chem Lett, 2006).

What is called IC50 is the concentration needed to halve the response being measured. The pKi is −log10 of the Ki, conventionally taken in molar units. Usually clearance stands for the rate of elimination divided by the concentration. One may read the half-life as how long it takes for the measured level to halve. By Cmax is commonly meant the highest concentration seen after dosing. Broadly, the pEC50 is the negative decadic logarithm of the EC50, by convention in mol/L. As usually defined, the bioavailability is dose-corrected exposure relative to a reference, in per cent. As usually defined, the pIC50 is −log10 of the IC50, conventionally taken in molar units.

pEC50, pIC50, pKi: −log10 of the molar value.

Chain of Sodium-dependent noradrenaline transporter (P23975 whole entry): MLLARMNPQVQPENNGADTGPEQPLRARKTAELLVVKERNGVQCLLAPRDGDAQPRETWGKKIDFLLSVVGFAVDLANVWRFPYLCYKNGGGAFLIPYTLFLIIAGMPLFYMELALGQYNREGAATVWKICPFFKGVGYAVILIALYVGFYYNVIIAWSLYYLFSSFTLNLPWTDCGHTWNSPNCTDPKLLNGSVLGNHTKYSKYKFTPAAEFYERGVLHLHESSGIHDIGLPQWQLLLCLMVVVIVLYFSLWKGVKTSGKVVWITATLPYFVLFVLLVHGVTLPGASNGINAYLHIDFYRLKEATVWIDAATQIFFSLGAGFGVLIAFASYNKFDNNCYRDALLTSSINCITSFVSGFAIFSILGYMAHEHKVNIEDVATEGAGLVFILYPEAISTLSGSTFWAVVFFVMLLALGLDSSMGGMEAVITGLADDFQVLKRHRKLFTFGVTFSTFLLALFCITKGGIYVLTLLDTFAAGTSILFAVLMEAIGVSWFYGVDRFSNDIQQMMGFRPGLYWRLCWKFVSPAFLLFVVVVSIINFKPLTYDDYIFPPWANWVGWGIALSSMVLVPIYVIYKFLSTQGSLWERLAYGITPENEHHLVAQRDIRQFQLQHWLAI
Chain of Sodium-dependent dopamine transporter (Q01959 whole entry): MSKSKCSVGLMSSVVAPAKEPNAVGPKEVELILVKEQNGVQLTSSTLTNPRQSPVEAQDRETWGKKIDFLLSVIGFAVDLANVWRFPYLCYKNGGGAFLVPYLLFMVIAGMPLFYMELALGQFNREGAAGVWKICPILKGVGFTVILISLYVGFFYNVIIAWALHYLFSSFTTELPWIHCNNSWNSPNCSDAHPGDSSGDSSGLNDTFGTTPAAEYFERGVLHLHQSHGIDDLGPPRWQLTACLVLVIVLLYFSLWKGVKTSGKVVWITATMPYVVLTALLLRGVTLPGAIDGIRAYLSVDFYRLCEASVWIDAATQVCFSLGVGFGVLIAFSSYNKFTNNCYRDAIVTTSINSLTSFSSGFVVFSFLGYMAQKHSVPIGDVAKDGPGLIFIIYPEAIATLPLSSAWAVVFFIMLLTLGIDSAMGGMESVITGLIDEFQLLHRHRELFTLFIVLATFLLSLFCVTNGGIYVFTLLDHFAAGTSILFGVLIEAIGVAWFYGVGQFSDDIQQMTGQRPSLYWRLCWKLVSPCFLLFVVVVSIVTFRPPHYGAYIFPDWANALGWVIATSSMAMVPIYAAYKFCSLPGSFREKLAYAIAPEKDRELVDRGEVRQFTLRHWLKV
Chain of Sodium-dependent serotonin transporter (P31645 whole entry): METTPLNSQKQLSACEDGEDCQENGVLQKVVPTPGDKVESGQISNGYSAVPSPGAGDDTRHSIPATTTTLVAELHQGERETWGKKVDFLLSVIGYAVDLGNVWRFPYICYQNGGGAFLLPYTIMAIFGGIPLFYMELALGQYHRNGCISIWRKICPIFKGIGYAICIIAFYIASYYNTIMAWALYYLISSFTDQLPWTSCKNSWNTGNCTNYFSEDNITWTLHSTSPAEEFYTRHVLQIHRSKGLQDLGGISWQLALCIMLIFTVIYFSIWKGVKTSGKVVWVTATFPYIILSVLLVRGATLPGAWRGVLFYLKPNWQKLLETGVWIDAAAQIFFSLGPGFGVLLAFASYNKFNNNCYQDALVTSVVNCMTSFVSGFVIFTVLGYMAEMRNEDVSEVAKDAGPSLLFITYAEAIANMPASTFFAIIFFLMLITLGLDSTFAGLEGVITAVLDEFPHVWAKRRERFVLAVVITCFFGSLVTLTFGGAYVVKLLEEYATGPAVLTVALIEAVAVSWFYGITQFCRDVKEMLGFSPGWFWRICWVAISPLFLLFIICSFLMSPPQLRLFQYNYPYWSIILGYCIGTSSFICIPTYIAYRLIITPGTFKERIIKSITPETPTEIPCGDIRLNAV

For `N#Cc1cccc(NC(=O)NCCC[C@@H]2C[C@H](Cc3ccccc3)CCN2)c1` (racemic), the IC50 in [1] was 386 nM (antagonist).

With `CC(=O)CN1CC[C@@H](Cc2ccc(F)cc2)C[C@@H]1CCCNC(=O)Nc1cc(C(C)=O)cc(C(C)=O)c1`, the IC50 in [1] is on record as 0.9 nM (antagonist). Also, the pKi in [2] was 6.42; in data set [3], 6.12; in data set [4], 7.96.

As for `C#CCN1CC[C@@H](Cc2ccc(F)cc2)C[C@@H]1CCCNC(=O)Nc1cc(C(C)=O)cc(C(C)=O)c1`, the IC50 in [1] was 1.9 nM (antagonist). The pKi in [2] was 6.28; in [3] it was 6.21; in data set [4], 6.52.

As to `CCC(=O)N1CC[C@@H](Cc2ccc(F)cc2)C[C@@H]1CCCNC(=O)Nc1cc(C(C)=O)cc(C(C)=O)c1`, the half-maximal inhibitory concentration (IC50) in data set [1] is recorded as 5.8 nM (antagonist). The pKi is 5.03 in [2], 5.68 in data set [3] and 6.65 in data set [4].

As to `N#Cc1cccc(NC(=O)NCCCC[C@H]2C[C@H](Cc3ccccc3)CCN2)c1` (racemic), in data set [1], the 50% inhibitory concentration (IC50) is given as 142 nM (antagonist).

Regarding `CCCN1CC[C@@H](Cc2ccc(F)cc2)C[C@@H]1CCCNC(=O)Nc1cccc(C(C)=O)c1`, the Vd in [5] was determined as 3.1 L/kg; in data set [10], 8 L/kg. For the same compound, the IC50 in data set [1] is 2 nM (antagonist). For the same compound, the clearance in data set [6] was 6.67 mL/min/kg; in data set [15], 177 mL/min/kg. Besides, the pKi in data set [2] is 5.38; in [3], 6.12; in [4] it was 6.53. The half-life in [7] was 9 h; in [12] it was 1.4 h. Also, the Cmax in [8] came to 274 nM; in data set [9], 989 nM. The pEC50 in [11] is 7.72. Further, the bioavailability in data set [13] is 18%; in [14], 36%. The pIC50 in data set [16] is 7.59.

As for `CC(=O)c1cccc(NC(=O)NCCC[C@H]2C[C@H](Cc3ccc(F)cc3)CCN2)c1`, the IC50 in data set [1] is recorded as 1.4 nM (antagonist). Also, the pKi was 6.63 in [2], 6.66 in data set [3] and 7.74 in data set [4].

As to `CC(=O)c1cc(NC(=O)NCCC[C@H]2C[C@H](Cc3ccc(F)cc3)CCN2C(C)=O)cc(C(C)=O)c1`, the IC50 in [1] was 3.9 nM (antagonist). In addition, the values for the pKi in data set [2], in data set [3] and in [4] were 5.86, 5.91 and 5.26, respectively. The compound also had a pEC50 in [11] of less than 7.00. Also, the pIC50 in data set [16] is 6.88.

For the compound `CC(=O)c1cccc(NC(=O)NCCC[C@H]2C[C@H](Cc3ccc(F)cc3)CCN2C)c1`, in data set [1], the IC50 is given as 1.7 nM (antagonist). Further, the pKi in [2] was 6.59; in data set [3] it was 7.02; in data set [4], 6.24.

As to `CC(=O)c1cccc(NC(=O)NCCC[C@H]2C[C@H](Cc3ccc(F)cc3)CCN2CC2CC2)c1`, the IC50 in data set [1] is 2.5 nM (antagonist). In addition, the pKi in [2] is 5.46; in data set [3], 6.60; in data set [4] it was 6.93.

As for `C=CCN1CC[C@@H](Cc2ccc(F)cc2)C[C@@H]1CCCNC(=O)Nc1cccc(C(C)=O)c1`, the half-maximal inhibitory concentration (IC50) in data set [1] is recorded as 4.1 nM (antagonist). Further, the pKi was 5.91 in data set [2], 6.07 in data set [3] and 6.66 in data set [4].

In the case of `CC(=O)c1cccc(NC(=O)NCCC[C@H]2C[C@H](Cc3ccc(F)cc3)CCN2CCO)c1`, the IC50 in [1] was 7 nM (antagonist). Also, the values for the pKi in data set [2], in data set [3] and in data set [4] were 5.74, 5.65 and 7.30, respectively.

Take `C=CCN1CC[C@@H](Cc2ccc(F)cc2)C[C@@H]1CCCNC(=O)Nc1cc(C(C)=O)cc(C(C)=O)c1`: the half-inhibitory concentration (IC50) in data set [1] is on record as 1 nM (antagonist). Further, the pKi in [2] is 6.06; in [3], 6.53; in data set [4], 7.16.

`CC(=O)c1cccc(NC(=O)NCCC[C@H]2C[C@H](Cc3ccccc3)CCN2)c1` (racemic): the half-maximal inhibitory concentration (IC50) in data set [1] is listed as 6 nM (antagonist). Moreover, the pKi in [2] is 7.41; in data set [3] it was 7.49; in [4], 7.38.

`CCCN1CC[C@@H](Cc2ccc(F)cc2)C[C@@H]1CCCNC(=O)Nc1cc(C(C)=O)cc(C(C)=O)c1`: in data set [1], the IC50 was 0.7 nM (antagonist). Besides, the results for the negative-log Ki (pKi) in data set [2], in data set [3] and in data set [4] were 5.83, 6.80 and 6.78, respectively. For the same compound, the pEC50 in data set [11] is 8.33. Besides, in data set [16], the negative-log IC50 (pIC50) is 8.92.

For the compound `CC(=O)c1cc(NC(=O)NCCC[C@H]2C[C@H](Cc3ccc(F)cc3)CCN2)cc(C(C)=O)c1`, in data set [1], the half-maximal inhibitory concentration (IC50) is 0.5 nM (antagonist). In addition, the pKi in data set [2] is 7.02; in data set [3], 6.92; in data set [4] it was 8.46.

As for `CC(=O)c1cc(NC(=O)NCCC[C@H]2C[C@H](Cc3ccc(F)cc3)CCN2CC(F)F)cc(C(C)=O)c1`, the half-maximal inhibitory concentration (IC50) in data set [1] is listed as 12.4 nM (antagonist). Also, the pKi in data set [2] was 5.98; in data set [3] it was 6.03; in data set [4], 6.48.

On to `CC(=O)c1cc(NC(=O)NCCC[C@H]2C[C@H](Cc3ccc(F)cc3)CCN2C(=N)N)cc(C(C)=O)c1`, for which, in data set [1], the IC50 is recorded as 4.3 nM (antagonist). The pKi in data set [2] is 6.41; in [3], 7.51; in data set [4] it was 7.72.

`CC(=O)c1cc(NC(=O)NCCC[C@H]2C[C@H](Cc3ccc(F)cc3)CCN2CCO)cc(C(C)=O)c1`: the IC50 in data set [1] is reported as 0.9 nM (antagonist). Moreover, the pKi was 5.86 in data set [2], 6.35 in data set [3] and 7.40 in [4].

Take `N#Cc1cccc(NC(=O)NCCC[C@H]2C[C@H](Cc3ccccc3)CCN2)c1` (racemic): the IC50 in [1] was 22 nM (antagonist).

`CC(=O)c1cc(NC(=O)NCCC[C@H]2C[C@H](Cc3ccc(F)cc3)CCN2CCCO)cc(C(C)=O)c1`: the IC50 in data set [1] is reported as 1.3 nM (antagonist). The pKi in [2] was 6.30; in data set [3], 6.22; in data set [4], 6.67.

As for `N#Cc1cccc(NC(=O)NCCC[C@H]2C[C@H](Cc3ccccc3)CCN2)c1` (stereo in doubt; 4), in data set [1], the IC50 is listed as 13 nM (antagonist). Further, the pKi is 7.43 in data set [2], 7.47 in [3] and 7.46 in data set [4].

As to `CC(=O)c1cc(NC(=O)NCCC[C@H]2C[C@H](Cc3ccc(F)cc3)CCN2CCF)cc(C(C)=O)c1`, the IC50 in data set [1] is given as 2.3 nM (antagonist). In addition, the pKi in data set [2] was 6.50; in data set [3] it was 6.19; in data set [4] it was 7.31.

As to `CC(=O)c1cc(NC(=O)NCCC[C@H]2C[C@H](Cc3ccc(F)cc3)CCN2CC(N)=O)cc(C(C)=O)c1`, the IC50 in data set [1] is given as 3.6 nM (antagonist). Also, the pKi in data set [2] is 5.30; in data set [3] it was 5.58; in [4], 6.15.

Turning to `N#Cc1cccc(NC(=O)NCCC[C@H]2C[C@H](Cc3ccccc3)CCN2)c1` (stereo in doubt; 5), in [1], the IC50 is listed as 644 nM (antagonist). Besides, the pKi was 7.34 in [2], 8.00 in data set [3] and 7.27 in data set [4].

For `CC(=O)c1cc(NC(=O)NCCC[C@H]2C[C@H](Cc3ccc(F)cc3)CCN2CC(F)(F)F)cc(C(C)=O)c1`, in data set [1], the half-maximal inhibitory concentration (IC50) is 1380 nM (antagonist).

On to `N#Cc1cccc(NC(=O)NCC[C@H]2C[C@H](Cc3ccccc3)CCN2)c1` (racemic), for which, in data set [1], the IC50 is given as 185 nM (antagonist).
